# Laboratory results from US6376670B1, “Quinoline-indole antimicrobial agents, uses and compositions related thereto” (Sepracor Inc., priority 1997, dated 2002).
# Where two headings read alike, the source gives them in different places.
# Experiments:
# [1] = test system: vancomycin-resistant Enterococcus spp. (VRE); experiment: Determination of MIC values (BHI broth, 96 well microtiter plate); format: cell-based; conditions: Enterococcus, VRE, 16 h, read-out: MIC VREF
# Description: (§1) Stock solutions of compounds are prepared with a concentration of 10 mg/mL. These solutions are then diluted 1:4 to give a concentration of 2.5 mg/mL. The compounds are then serially diluted 1:2 for 6 iterations. The concentrations made for each compound are 2.5, 1.25, 0.625, 0.3125, 0.156, 0.078, and 0.039 mg/mL. A control sample (no compound) is run along with each compound tested. All dilutions are made in DMSO.
# (§2) All wells of a 96 well microtiter plate are filled with 100 μL of BHI (Brain-Heart Infusion) broth. Columns on the plate are labeled 1-12, and rows are labeled A-H. Each column of wells is used to test one series of diluted compounds. Into each well of 100 μL of BHI broth, 1 μL of diluted compound is placed for a 1:100 dilution. This makes the final concentration of each drug series 25, 12.5, 6.25, 3.125, 1.56, 0.78, 0.39, and 0 μg/mL.
# (§3) Test Organism: A sterile 15 mL screw cap tube is filled wth 3 mL of BHI broth. Next, 2-3 colonies of test organism are inoculated into the tube. The tube is then incubated at 37° C. in a CO2 (approx. 7%) atmosphere jar. The organisms are allowed to grow to the density of a 0.5 McFarland standard (10^8 cells/mL). The organism is then inoculated into each well of the microtiter plate containing the diluted compounds to be tested for MIC. The inoculum is 1 μL in volume and represents 10^5 to 10^6 cells/mL.
# (§4) After inoculation the plates are covered and incubated at 37° C. and approx. 7-10% CO2 atmosphere overnight (about 16 hours). The plates are then observed for growth, the well with the lowest concentration of drug and no observable growth represents the well determining the MIC.
# [2] = test system: methicillin-resistant Staphylococcus aureus (MRSA); experiment: as above; format: cell-based; conditions: Staphylococcus aureus, MRSA, 16 h, read-out: MIC MRSA
# Description: as §1, §2, §3, §4
# [3] = BHI broth, 37° C., overnight (about 16 hours)
"MIC [1, 3] [µg/mL]","MIC [2, 3] [µg/mL]",Structure (SMILES),MIC [1] [µg/mL],MIC [2] [µg/mL],"MIC ([2]; BHI broth, 37° C., about 16 hours) [µg/mL]"
> 25,> 25,Cn1cc(-c2cc(C(=O)NCc3ccc(CN)cc3)c3ccccc3n2)c2ccccc21 [Example 12],–,–,–
< 25,< 7,NCc1ccc(CNC(=O)c2cc3ccccc3c(-c3c[nH]c4ccc(Br)cc34)n2)cc1 [Example 13],–,–,–
< 25,< 25,O=C(c1cc(-c2c[nH]c3ccc(Br)cc23)nc2ccccc12)N1CCCNCC1 [Example 14],–,–,–
> 25,< 25,NCc1ccc(CNC(=O)c2cc(-c3c[nH]c4ccc(F)cc34)nc3ccccc23)cc1 [Example 15],–,–,–
< 25,< 7,NCc1ccc(CNC(=O)c2cc(-c3c[nH]c4ccc(Cl)cc34)nc3ccccc23)cc1 [Example 16],–,–,–
> 25,< 25,Cc1ccc2[nH]cc(-c3cc(C(=O)NCc4ccc(CN)cc4)c4ccccc4n3)c2c1 [Example 17],–,–,–
> 25,> 25,COc1ccc2[nH]cc(-c3cc(C(=O)NCc4ccc(CN)cc4)c4ccccc4n3)c2c1 [Example 18],–,–,–
< 25,< 25,NCc1ccc(CNC(=O)c2cc(-c3c[nH]c4ccc(OCc5ccccc5)cc34)nc3ccccc23)cc1 [Example 19],–,–,–
< 25,< 25,NCc1ccc(CNC(=O)c2cc(-c3c[nH]c4cc(Cl)ccc34)nc3ccccc23)cc1 [Example 20],–,–,–
> 25,> 25,NCc1ccc(CNC(=O)c2cc(-c3c[nH]c4cccc(Cl)c34)nc3ccccc23)cc1 [Example 21],–,–,–
> 25,> 25,NCc1ccc(CNC(=O)c2cc(-c3c(-c4ccccc4)[nH]c4ccccc34)nc3ccccc23)cc1 [Example 22],–,–,–
> 25,> 25,Cc1[nH]c2ccccc2c1-c1cc(C(=O)NCc2ccc(CN)cc2)c2ccccc2n1 [Example 23],–,–,–
> 25,> 25,COC(=O)c1cc(-c2c[nH]c3ccc(Br)cc23)nc2ccccc12 [Example 24],–,–,–
> 25,> 25,O=C(c1cc(C23CC4CC(CC(C4)C2)C3)nc2ccccc12)N1CCNCC1 [Example 25],–,–,–
< 25,< 25,NCc1ccc(CNC(=O)c2cc(C34CC5CC(CC(C5)C3)C4)nc3ccccc23)cc1 [Example 26],–,–,–
> 25,> 25,O=C(O)c1cc(-c2c[nH]c3ccc(Br)cc23)nc2ccccc12 [Example 27],–,–,–
< 25,< 25,Brc1ccc2[nH]cc(-c3cc(CN4CCNCC4)c4ccccc4n3)c2c1 [Example 28],–,–,–
< 25,< 25,COC(=O)C(=O)N1CCN(C(=O)c2cc(-c3c[nH]c4ccc(Br)cc34)nc3ccccc23)CC1 [Example 29],–,–,–
> 25,< 25,CN1CCN(C(=O)c2cc(-c3c[nH]c4ccc(Br)cc34)nc3ccccc23)CC1 [Example 30],–,–,–
< 25,< 25,CNC1CCN(C(=O)c2cc(-c3c[nH]c4ccc(Br)cc34)nc3ccccc23)CC1 [Example 31],–,–,–
< 25,< 25,O=C(c1cc(-c2c[nH]c3ccc(Br)cc23)nc2ccccc12)N1CCN(c2ccc(F)cc2)CC1 [Example 32],–,–,–
< 7,< 7,CNCCC(C)N(C)C(=O)c1cc(-c2c[nH]c3ccc(Br)cc23)nc2ccccc12 (centres unmarked) [Example 33],–,–,–
< 25,< 25,O=C(NC1CCOC1=O)c1cc(-c2c[nH]c3ccc(Br)cc23)nc2ccccc12 (centres unmarked) [Example 34],–,–,–
–,–,O=C(NC1CN2CCC1CC2)c1cc(-c2c[nH]c3ccc(Br)cc23)nc2ccccc12 (centres unmarked) [Example 35],> 25,< 25,–

"MIC [1, 3] [µg/mL]","MIC [2, 3] [µg/mL]",Structure (SMILES),MIC [1] [µg/mL],MIC [2] [µg/mL],"MIC ([2]; BHI broth, 37° C., about 16 hours) [µg/mL]"
< 25,< 25,O=C(c1cc(-c2c[nH]c3ccc(Br)cc23)nc2ccccc12)N1CCC(O)(c2ccccc2)CC1 [Example 36],–,–,–
> 25,< 7,O=C(Nc1ccc(O)cc1)c1cc(-c2c[nH]c3ccc(Br)cc23)nc2ccccc12 [Example 37],–,–,–
> 25,< 7,O=C(NCc1nc2ccccc2[nH]1)c1cc(-c2c[nH]c3ccc(Br)cc23)nc2ccccc12 [Example 38],–,–,–
< 7,< 7,NCc1ccc(CNCc2cc(-c3c[nH]c4ccc(Br)cc34)nc3ccccc23)cc1 [Example 39],–,–,–
> 25,> 25,O=C(NCc1ccc(CNC(=O)c2cc(-c3c[nH]c4ccc(Br)cc34)nc3ccccc23)cc1)Nc1ccccc1 [Example 40],–,–,–
< 25,< 25,NCCCCCNC(=O)c1cc(-c2c[nH]c3ccc(Br)cc23)nc2ccccc12 [Example 41],–,–,–
< 25,> 25,NCC1CCC(CNC(=O)c2cc(-c3c[nH]c4ccc(Br)cc34)nc3ccccc23)CC1 (centres unmarked) [Example 42],–,–,–
< 25,< 25,NC1CCN(C(=O)c2cc(-c3c[nH]c4ccc(Br)cc34)nc3ccccc23)C1 (centres unmarked) [Example 43],–,–,–
< 25,< 25,O=C(NCCN1CCCC1)c1cc(-c2c[nH]c3ccc(Br)cc23)nc2ccccc12 [Example 44],–,–,–
> 25,> 25,O=C(c1cc(-c2c[nH]c3ccc(Br)cc23)nc2ccccc12)N1CCN(Cc2ccccc2)CC1 [Example 45],–,–,–
< 25,< 25,NC(=O)C1CCCN(C(=O)c2cc(-c3c[nH]c4ccc(Br)cc34)nc3ccccc23)C1 (centres unmarked) [Example 46],–,–,–
< 25,< 25,O=C(c1cc(-c2c[nH]c3ccc(Br)cc23)nc2ccccc12)N1CCC(N2CCCCC2)CC1 [Example 47],–,–,–
< 7,< 7,O=C(NCCCCC1CCCNC1)c1cc(-c2c[nH]c3ccc(Br)cc23)nc2ccccc12 (centres unmarked) [Example 49],–,–,–
< 25,< 7,CNCc1ccc(CNCc2cc(-c3c[nH]c4ccc(Br)cc34)nc3ccccc23)cc1 [Example 50],–,–,–
< 7,< 7,NCCN(CCNC(=O)c1cccc2nc(-c3c[nH]c4ccc(Br)cc34)ccc12)CCNC(=O)c1cc(-c2c[nH]c3ccc(Br)cc23)nc2ccccc12 [Example 51],–,–,–
< 25,< 25,NCc1ccc(CNC(=O)c2cc(-c3csc4ccccc34)nc3ccccc23)cc1 [Example 52],–,–,–
< 7,< 7,O=C(c1cc(-c2c[nH]c3ccc(Br)cc23)nc2ccc(I)cc12)N1CCNCC1 [Example 54],–,–,–
< 7,< 7,NCc1ccc(CNC(=O)c2cc(-c3c[nH]c4ccc(Br)cc34)nc3ccc(OC(F)(F)F)cc23)cc1 [Example 55],–,–,–
< 25,< 25,Cc1cc(Cl)cc2c(C(=O)NCc3ccc(CN)cc3)cc(-c3c[nH]c4ccc(Br)cc34)nc12 [Example 56],–,–,–
< 25,< 25,N=C(N)NCCCC(NC(=O)c1cc(-c2c[nH]c3ccc(Br)cc23)nc2ccccc12)C(N)=O (centres unmarked) [Example 57],–,–,–
< 7,< 7,NCCCCCCNC(=O)c1cc(-c2c[nH]c3ccc(Br)cc23)nc2ccccc12 [Example 59],–,–,–
< 25,< 25,CNC1CCN(C(=O)c2cc(-c3c[nH]c4ccc(Br)cc34)nc3ccccc23)C1 (centres unmarked) [Example 60],–,–,–
> 25,> 25,O=C(CCC(=O)N1CCN(C(=O)c2cc(-c3c[nH]c4ccc(Br)cc34)nc3ccccc23)CC1)N1CCN(C(=O)c2cc(-c3c[nH]c4ccc(Br)cc34)nc3ccccc23)CC1 [Example 62],–,–,–
–,–,NCCNC(=O)c1cc(-c2c[nH]c3ccc(Br)cc23)nc2cc(Cl)c(C#CCN3CCCCC3)cc12 [Example 488],–,–,< 7
